Source: patent publication US11273145B2, “Compositions and methods for the treatment of acid-related gastrointestinal disorders containing a dithiolane compound and a gastric acid secretion inhibitor” (priority 2014, dated 2022)

Tests used:
[1] = target: T1, Na+-dependent multivitamin transporter (Homo sapiens, UniProt Q9Y289); details: in vitro; cited from earlier work
T1 sequence (Q9Y289 1-635): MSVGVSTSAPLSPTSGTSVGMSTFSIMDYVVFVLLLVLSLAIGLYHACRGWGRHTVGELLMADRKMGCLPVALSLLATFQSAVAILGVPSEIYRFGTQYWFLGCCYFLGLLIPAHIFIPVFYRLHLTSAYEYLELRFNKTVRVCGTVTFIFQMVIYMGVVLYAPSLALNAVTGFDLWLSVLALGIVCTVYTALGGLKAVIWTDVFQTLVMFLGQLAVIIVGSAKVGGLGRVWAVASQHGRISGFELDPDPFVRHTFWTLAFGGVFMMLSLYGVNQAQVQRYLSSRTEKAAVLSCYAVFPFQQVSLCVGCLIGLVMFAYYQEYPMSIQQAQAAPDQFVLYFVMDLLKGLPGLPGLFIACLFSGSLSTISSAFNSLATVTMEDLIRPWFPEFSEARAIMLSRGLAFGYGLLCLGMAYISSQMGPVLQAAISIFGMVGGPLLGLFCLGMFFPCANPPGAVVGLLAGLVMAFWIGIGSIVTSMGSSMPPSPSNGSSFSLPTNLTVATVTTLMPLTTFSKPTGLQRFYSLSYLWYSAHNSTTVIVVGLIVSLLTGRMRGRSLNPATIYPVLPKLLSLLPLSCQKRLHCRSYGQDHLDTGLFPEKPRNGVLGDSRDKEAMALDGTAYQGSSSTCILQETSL

[2] = tested on: intracellular glutathione (GSH); details: variety of cell types and tissues; cited from earlier work
[3] = tested on: cell monolayer; details: Transwell model; cited from earlier work
[4] = tested on: GERD symptoms; assay: Example 1: subject diagnosed with GERD, self-reported relief on omeprazole alone vs omeprazole plus ALA; assay type: in vivo, human; details: scale of 1-10; 40 mg of omeprazole per day
Procedure: A middle aged subject diagnosed with GERD had been on the proton pump inhibitor omeprazole for approximately three years. The subject reported taking 40 mg of omeprazole per day to control symptoms of GERD. On a scale of 1-10, subject rated the effectiveness of omeprazole at 5. […] In accordance with the present disclosure, they began taking orally 20 mg of omeprazole and 400 mg of ALA on a daily basis. […] Subject rated effectives of regime of the present disclosure a 9 on a scale from 1-10. […] Additional study was undertaken to see to what extent the combination of proton pump inhibitor and ALA of the present disclosure would have on GERD and heartburn symptoms. The person was instructed to orally take 20 mg of omeprazole and 600 mg of ALA daily for 3 months. […] Other important facts were gathered from this 3-month study. The treatment regime is fast acting and generally will halt the symptoms of even the worst scenario of acid reflux in no more than 120 minutes. Continued relief is experienced for a minimum of 24 hours with no further oral intake of the combination regime. The participant reported eating regular foods with no more modified diet schemes. Foods such as pizza, spaghetti, chili, ice cream, pastrami, taco […] like, all once avoided, are now capable of being enjoyed at meal times.

[5] = tested on: heartburn and GERD; assay: Conclusions on the use of the combination regimes; assay type: in vivo, human; details: Omeprazole alone

| SMILES | transporter substrate status [1] | effect on intracellular glutathione (GSH) [2] | transport across cell monolayer [3] | effectiveness rating by subject [4] | time to elimination of GERD symptoms, on the average [5] [days] |
| --- | --- | --- | --- | --- | --- |
| O=C(O)CCCCC1CCSS1 (stereo not drawn) [ALA, Alpha-Lipoic Acid] | substrate | markedly increases | rapidly traverses the cell monolayer in a pH-dependent manner |  |  |
| COc1ccc2[nH]c([S+]([O-])Cc3ncc(C)c(OC)c3C)nc2c1 (centres unmarked) [omeprazole] |  |  |  | 5 | 2 |
